Source: ChEMBL document CHEMBL3045057, “2-D QSAR studies of steroidal natural products oleanic acid and their semisynthetic derivatives as potent protein tyrosine phosphatase 1B inhibitors” (Med Chem Res, 2012)

Target: T1, Tyrosine-protein phosphatase non-receptor type 1 (Homo sapiens, UniProt P18031)
T1 sequence (P18031 whole entry): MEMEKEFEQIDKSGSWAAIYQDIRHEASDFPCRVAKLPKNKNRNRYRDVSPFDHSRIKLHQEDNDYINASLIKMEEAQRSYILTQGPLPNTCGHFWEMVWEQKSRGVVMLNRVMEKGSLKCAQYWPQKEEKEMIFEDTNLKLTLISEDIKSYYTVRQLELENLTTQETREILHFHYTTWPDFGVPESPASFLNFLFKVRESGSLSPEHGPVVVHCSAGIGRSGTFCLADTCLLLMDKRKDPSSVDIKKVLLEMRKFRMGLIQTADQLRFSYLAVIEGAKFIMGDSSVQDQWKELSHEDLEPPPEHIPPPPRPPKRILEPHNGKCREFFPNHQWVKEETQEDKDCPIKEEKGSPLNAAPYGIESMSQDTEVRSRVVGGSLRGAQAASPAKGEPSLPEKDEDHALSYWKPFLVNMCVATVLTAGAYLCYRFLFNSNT
Test: Inhibition of PTP1B (unknown origin)

IC50 (read-out: IC50)	IC50 (read-out: pIC50 (converted))	Structure (SMILES)
2670 nM	2670 nM	CC1(C)CC[C@]2(C(=O)O)CC[C@]3(C)C(=CC[C@@H]4[C@@]5(C)CC[C@H](Cc6ccccc6)C(C)(C)[C@@H]5CC[C@]43C)[C@@H]2C1
2720 nM	2720 nM	CC1(C)CC[C@]2(C(=O)O)CC[C@]3(C)C(=CC[C@@H]4[C@@]5(C)CC[C@H](Cc6ccccc6C(=O)O)C(C)(C)[C@@H]5CC[C@]43C)[C@@H]2C1
150 nM	150 nM	CC1(C)CC[C@]2(CCCCC(=O)NC(Cc3ccccc3)C(=O)O)CC[C@]3(C)C(=CC[C@@H]4[C@@]5(C)CC[C@H](OCc6ccc(C(=O)O)cc6)C(C)(C)[C@@H]5CC[C@]43C)[C@@H]2C1 (some centres not stated)
820 nM	820 nM	COc1ccc(CC(NC(=O)C[C@]23CCC(C)(C)C[C@H]2C2=CC[C@@H]4[C@@]5(C)CC[C@H](O)C(C)(C)[C@@H]5CC[C@@]4(C)[C@]2(C)CC3)C(=O)O)cc1OC (some centres not stated)
630 nM	630 nM	COc1cc(CC(NC(=O)C[C@]23CCC(C)(C)C[C@H]2C2=CC[C@@H]4[C@@]5(C)CC[C@H](O)C(C)(C)[C@@H]5CC[C@@]4(C)[C@]2(C)CC3)C(=O)O)cc(OC)c1 (some centres not stated)
550 nM	550 nM	Cc1ccccc1CC(NC(=O)C[C@]12CCC(C)(C)C[C@H]1C1=CC[C@@H]3[C@@]4(C)CC[C@H](O)C(C)(C)[C@@H]4CC[C@@]3(C)[C@]1(C)CC2)C(=O)O (some centres not stated)
650 nM	650 nM	Cc1ccc(CC(NC(=O)C[C@]23CCC(C)(C)C[C@H]2C2=CC[C@@H]4[C@@]5(C)CC[C@H](O)C(C)(C)[C@@H]5CC[C@@]4(C)[C@]2(C)CC3)C(=O)O)cc1 (some centres not stated)
530 nM	530 nM	COc1ccccc1CC(NC(=O)C[C@]12CCC(C)(C)C[C@H]1C1=CC[C@@H]3[C@@]4(C)CC[C@H](O)C(C)(C)[C@@H]4CC[C@@]3(C)[C@]1(C)CC2)C(=O)O (some centres not stated)
520 nM	520 nM	COc1cccc(CC(NC(=O)C[C@]23CCC(C)(C)C[C@H]2C2=CC[C@@H]4[C@@]5(C)CC[C@H](O)C(C)(C)[C@@H]5CC[C@@]4(C)[C@]2(C)CC3)C(=O)O)c1 (some centres not stated)
600 nM	600 nM	COc1ccc(CC(NC(=O)C[C@]23CCC(C)(C)C[C@H]2C2=CC[C@@H]4[C@@]5(C)CC[C@H](O)C(C)(C)[C@@H]5CC[C@@]4(C)[C@]2(C)CC3)C(=O)O)cc1 (some centres not stated)
440 nM	440 nM	CC1(C)CC[C@]2(CC(=O)NC(Cc3ccc4c(c3)OCO4)C(=O)O)CC[C@]3(C)C(=CC[C@@H]4[C@@]5(C)CC[C@H](O)C(C)(C)[C@@H]5CC[C@]43C)[C@@H]2C1 (some centres not stated)
660 nM	660 nM	COc1cccc(CC(NC(=O)C[C@]23CCC(C)(C)C[C@H]2C2=CC[C@@H]4[C@@]5(C)CC[C@H](O)C(C)(C)[C@@H]5CC[C@@]4(C)[C@]2(C)CC3)C(=O)O)c1OC (some centres not stated)
590 nM	590 nM	CC1(C)CC[C@]2(C(=O)OCCCCCCCCCCCCC(=O)O)CC[C@]3(C)C(=CC[C@@H]4[C@@]5(C)CC[C@H](O)C(C)(C)[C@@H]5CC[C@]43C)[C@@H]2C1
570 nM	570 nM	CC1(C)CC[C@]2(CC(=O)NC(Cc3ccccc3)C(=O)O)CC[C@]3(C)C(=CC[C@@H]4[C@@]5(C)CC[C@H](O)C(C)(C)[C@@H]5CC[C@]43C)[C@@H]2C1 (some centres not stated)
4620 nM	4620 nM	CC1(C)CC[C@]2(CC(=O)NC(Cc3cnc[nH]3)C(=O)O)CC[C@]3(C)C(=CC[C@@H]4[C@@]5(C)CC[C@H](O)C(C)(C)[C@@H]5CC[C@]43C)[C@@H]2C1 (some centres not stated)
590 nM	590 nM	CC1(C)CC[C@]2(CC(=O)NC(CC3=CCc4ccccc43)C(=O)O)CC[C@]3(C)C(=CC[C@@H]4[C@@]5(C)CC[C@H](O)C(C)(C)[C@@H]5CC[C@]43C)[C@@H]2C1 (some centres not stated)

IC50 (read-out: IC50)	IC50 (read-out: pIC50 (converted))	Structure (SMILES)
550 nM	550 nM	CSCCC(NC(=O)C[C@]12CCC(C)(C)C[C@H]1C1=CC[C@@H]3[C@@]4(C)CC[C@H](O)C(C)(C)[C@@H]4CC[C@@]3(C)[C@]1(C)CC2)C(=O)O (some centres not stated)
560 nM	560 nM	CC1(C)CC[C@]2(CC(=O)NC(Cc3ccccc3Cl)C(=O)O)CC[C@]3(C)C(=CC[C@@H]4[C@@]5(C)CC[C@H](O)C(C)(C)[C@@H]5CC[C@]43C)[C@@H]2C1 (some centres not stated)
510 nM	510 nM	CC1(C)CC[C@]2(CC(=O)NC(Cc3cccc(Cl)c3)C(=O)O)CC[C@]3(C)C(=CC[C@@H]4[C@@]5(C)CC[C@H](O)C(C)(C)[C@@H]5CC[C@]43C)[C@@H]2C1 (some centres not stated)
610 nM	610 nM	CC1(C)CC[C@]2(CC(=O)NC(Cc3ccc(Cl)cc3)C(=O)O)CC[C@]3(C)C(=CC[C@@H]4[C@@]5(C)CC[C@H](O)C(C)(C)[C@@H]5CC[C@]43C)[C@@H]2C1 (some centres not stated)
570 nM	570 nM	CC1(C)CC[C@]2(CC(=O)NC(Cc3ccc(F)cc3)C(=O)O)CC[C@]3(C)C(=CC[C@@H]4[C@@]5(C)CC[C@H](O)C(C)(C)[C@@H]5CC[C@]43C)[C@@H]2C1 (some centres not stated)
450 nM	450 nM	CC1(C)CC[C@]2(CC(=O)NC(Cc3ccc([N+](=O)[O-])cc3)C(=O)O)CC[C@]3(C)C(=CC[C@@H]4[C@@]5(C)CC[C@H](O)C(C)(C)[C@@H]5CC[C@]43C)[C@@H]2C1 (some centres not stated)
2100 nM	2100 nM	CC1(C)CC[C@]2(C(=O)OCCC(=O)O)CC[C@]3(C)C(=CC[C@@H]4[C@@]5(C)CC[C@H](O)C(C)(C)[C@@H]5CC[C@]43C)[C@@H]2C1
1330 nM	1330 nM	CC1(C)CC[C@]2(C(=O)OCCCCC(=O)O)CC[C@]3(C)C(=CC[C@@H]4[C@@]5(C)CC[C@H](O)C(C)(C)[C@@H]5CC[C@]43C)[C@@H]2C1
880 nM	880 nM	CC1(C)CC[C@]2(C(=O)OCCCCCCC(=O)O)CC[C@]3(C)C(=CC[C@@H]4[C@@]5(C)CC[C@H](O)C(C)(C)[C@@H]5CC[C@]43C)[C@@H]2C1
780 nM	780 nM	CC1(C)CC[C@]2(C(=O)OCCCCCCCCC(=O)O)CC[C@]3(C)C(=CC[C@@H]4[C@@]5(C)CC[C@H](O)C(C)(C)[C@@H]5CC[C@]43C)[C@@H]2C1
720 nM	720 nM	CC1(C)CC[C@]2(C(=O)OCCCCCCCCCCC(=O)O)CC[C@]3(C)C(=CC[C@@H]4[C@@]5(C)CC[C@H](O)C(C)(C)[C@@H]5CC[C@]43C)[C@@H]2C1
3310 nM	3310 nM	CC1(C)CC[C@]2(C(=O)NC(Cc3ccccc3)C(=O)O)CC[C@]3(C)C(=CC[C@@H]4[C@@]5(C)CC[C@H](O)C(C)(C)[C@@H]5CC[C@]43C)[C@@H]2C1 (some centres not stated)
16400 nM	16400 nM	CC1(C)CC[C@]2(C(=O)NC(CCC(=O)O)C(=O)O)CC[C@]3(C)C(=CC[C@@H]4[C@@]5(C)CC[C@H](O)C(C)(C)[C@@H]5CC[C@]43C)[C@@H]2C1 (some centres not stated)
4580 nM	4580 nM	CC1(C)CC[C@]2(C(=O)O)CC[C@]3(C)C(=CC[C@@H]4[C@@]5(C)CC[C@H](OCc6ccccc6C(=O)O)C(C)(C)[C@@H]5CC[C@]43C)[C@@H]2C1
3090 nM	3090 nM	CC1(C)CC[C@]2(C(=O)Nc3ccc(C(=O)O)cc3)CC[C@]3(C)C(=CC[C@@H]4[C@@]5(C)CC[C@H](O)C(C)(C)[C@@H]5CC[C@]43C)[C@@H]2C1
